# Experiments:
# Experiment in all cases: Specific activity as kcat on purified enzyme
# Format in all cases: biochemical
# Conditions in all cases: pH 4.3, 37°C, purified sample
# [1] = test system: Aspergillus niger glucoamylase AMG G2 (SEQ ID NO: 2) variant G127A
# Protocol: (§1) Maltose: 29mM (1g maltose in 100ml 50mM sodium acetate, pH 4.5) (Sigma) Maltoheptaose: 10 mM, 115 mg/10 ml (Sigma)
# (§2) Determining Specific Activity As kcat (sec.^-1).
# (§3) 750 microL substrate (1% maltose, 50 mM Sodium acetat, pH 4.3) is incubated 5 minutes at selected temperature, such as 37°C or 60°C.
# (§4) 50 microL enzyme diluted in sodium acetate is added. Aliquots of 100 microL are removed after 0, 3, 6, 9 and 12 minutes and transferred to 100 microL 0.4 M Sodium hydroxide to stop the reaction. A blank is included. 20 microL is transferred to a Micro titre plates and 200 microL GOD-Perid solution is added. Absorbance is measured at 650 nm after 30 minutes incubation at room temperature. Glucose is used as standard and the specific activity is calculated as kcat (sec.^-1).
# (§5) AMG G2 variants were constructed as described above in Example 1. The specific activity as kcat were measured on purified samples at pH 4.3, 37°C, using maltose and maltohepatose as substrate as described in the "Materials & Methods" section above. The specific activity as AGU/mg were also measured at pH 4.3, 37°C, using maltose as substrate as described in the "Materials & Methods" section above.
# [2] = test system: Aspergillus niger glucoamylase AMG G2 (SEQ ID NO: 2) variant G207N
# Protocol: as §1, §2, §3, §4, §5
# [3] = test system: Aspergillus niger glucoamylase AMG G2 (SEQ ID NO: 2) variant N110T
# Protocol: as §1, §2, §3, §4, §5
# [4] = test system: Aspergillus niger glucoamylase AMG G2 (SEQ ID NO: 2) variant S119P
# Protocol: as §1, §2, §3, §4, §5
# [5] = test system: Aspergillus niger glucoamylase AMG G2 (SEQ ID NO: 2) variant V111P
# Protocol: as §1, §2, §3, §4, §5
# [6] = test system: Aspergillus niger glucoamylase AMG G2 (wt), SEQ ID NO: 2
# Protocol: as §1, §2, §3, §4, §5
Compound,Kcat (Maltose) ([1]; substrate maltose) [sec.-1],Kcat (Maltose) ([2]; substrate maltose) [sec.-1],Kcat (Maltose) ([3]; substrate maltose) [sec.-1],Kcat (Maltose) ([4]; substrate maltose) [sec.-1],Kcat (Maltose) ([5]; substrate maltose) [sec.-1],Kcat (Maltose) ([6]; substrate maltose) [sec.-1],Kcat (Maltoheptaose) ([1]; substrate maltoheptaose) [sec.-1],Kcat (Maltoheptaose) ([2]; substrate maltoheptaose) [sec.-1],Kcat (Maltoheptaose) ([3]; substrate maltoheptaose) [sec.-1],Kcat (Maltoheptaose) ([4]; substrate maltoheptaose) [sec.-1],Kcat (Maltoheptaose) ([5]; substrate maltoheptaose) [sec.-1],Kcat (Maltoheptaose) ([6]; substrate maltoheptaose) [sec.-1]
OC[C@H]1O[C@H](O[C@H]2[C@H](O)[C@@H](O)C(O)O[C@@H]2CO)[C@H](O)[C@@H](O)[C@@H]1O (mixture of isomers) [Maltose],21.0,30.5,9.7,6.2,12.0,6.0,–,–,–,–,–,–
OC[C@H]1O[C@H](O[C@H]2[C@H](O)[C@@H](O)[C@@H](O[C@H]3[C@H](O)[C@@H](O)[C@@H](O[C@H]4[C@H](O)[C@@H](O)[C@@H](O[C@H]5[C@H](O)[C@@H](O)[C@@H](O[C@H]6[C@H](O)[C@@H](O)[C@@H](O[C@H]7[C@H](O)[C@@H](O)C(O)O[C@@H]7CO)O[C@@H]6CO)O[C@@H]5CO)O[C@@H]4CO)O[C@@H]3CO)O[C@@H]2CO)[C@H](O)[C@@H](O)[C@@H]1O (stereo partly drawn) [Maltoheptaose],–,–,–,–,–,–,40.0,36.3,27.8,44.0,43.2,38
